Results from patent US9029135B2 (priority 2009, dated 2015).
Values joined by “and” are separate entries in the source; they are usually repeats but may differ in a detail not shown here. Identical values can stand only once.

Columns and labels:
MDS mouse model = experiment: MDS mouse model, combination of KanAS, ATRA and 5-azacytidine, survival; type: in vivo; conditions: MDS mice, individual mouse; alive = still alive on 24 Mar. 2010
Protocol: The MDS mouse model described in Omidvar et al. (2007, Cancer Res. 67:11657-67) was used to study the effect of the combination of KanAS, ATRA and 5-azacytidine on MDS.
100 microliters of 1 mg/ml solution of 5-Azacytidine was injected IP to the mice on the day of diagnosis and then on Mondays, Wednesdays and Fridays until death of the mice.
ATRA was administered through a 10 mg 21 day release pellet
The vaccination protocol was as follows: 100 micrograms of DNA (VVACS02 or pVax14 or pVaxKanAS) were administered […] diagnosis (day 0), which corresponded to the day on which the peripheral blood platelet count fell below normal (<10^5/microliter). On day 20 and on day 40, 2×50 micrograms of DNA were injected again.
The mice were randomly divided into four groups after twelve 5-azacytidine injections: • 5-Azacytidine (n=5) • 5-azacytidine+ATRA (n=4) • 5-azacytidine+VVACS02 DNA (n=4) • 5-azacytidine+ATRA+VVACS02 DNA (n=4)

APL cells = experiment: APL mouse model survival, Kaplan-Meier, mice followed for two years; type: in vivo, FVB/N mice; conditions: Kaplan-Meier survival curves
Protocol: The effect of different DNA constructs on an APL mouse model was studied using the protocol disclosed in Padua et al. (2003, Nature Medicine 9:1413-1417). Briefly, 10^4 APL cells were injected to FVB/N mice. Then an ATRA pellet, which releases 5 mg/day of ATRA for 21 days, was introduced behind the neck of the mice with a trochar. DNA (2×50 micrograms of plasmid) was injected the day after introducing the ATRA pellet, and every 20 days for a total of three injections. The following DNA constructs were injected to the mice: • the pVaxKanAS construct, also referred to as pVax14; • the pCDNA3PML-RARαFrC construct (VVACS01); • the pVaxPML-RARαFrC construct; and • the pCDNA3PML-RARαASFrC construct (VVACS04).
A pellet purchased from the manufacturer of the ATRA pellet (Innovative Research, Sarasota, USA) was used as a placebo.
The mice were followed for two years and Kaplan-Meier curves were constructed.
The results are shown on FIG. 2 and in Table 1 herebelow. The log-rank (Mantel-Cox) and general Wilcoxon tests were applied to the Kaplan-Meier curves. Both statistical tests led to identical conclusions in terms of significance.

| Compound | Days alive from treatment (MDS mouse model) | general Wilcoxon Chi-2 value (APL cells; V.S. placebo) | general Wilcoxon significance (p bound) (APL cells; V.S. placebo) | log-rank (Mantel-Cox) Chi-2 value (APL cells; V.S. placebo) | log-rank (Mantel-Cox) significance (p bound) (APL cells; V.S. placebo) | general Wilcoxon Chi-2 value (APL cells; V.S. placebo + DNA) | general Wilcoxon significance (p bound) (APL cells; V.S. placebo + DNA) | log-rank (Mantel-Cox) Chi-2 value (APL cells; V.S. placebo + DNA) | log-rank (Mantel-Cox) significance (p bound) (APL cells; V.S. placebo + DNA) |
| --- | --- | --- | --- | --- | --- | --- | --- | --- | --- |
| Nc1ncn([C@@H]2O[C@H](CO)[C@@H](O)[C@H]2O)c(=O)n1 [5-azacytidine] | 33 days and Alive on 24 Mar. 2010 (112 days) and 72 days and Alive on 24 Mar. 2010 (75 days) and 37 days |  |  |  |  |  |  |  |  |
| CC1=C(/C=C/C(C)=C/C=C/C(C)=C/C(=O)O)C(C)(C)CCC1 [ATRA, all-trans retinoic acid] |  | 5.1827E+01 | p < 0.0001 | 6.0018E+01 | p < 0.0001 | 1.6318E+01 | p < 0.0001 | 8.7059E+00 | p < 0.005 |
